One series is described as follows: Solubility of Idebenone. The series is classed as physicochemical. The text has this: The low water solubility of Idebenone makes the task of producing an injectable form very difficult. Use of water miscible solvents (alcohol, propylene glycol, liquid PEG, N-methylpyrrolidone, etc.), where Idebenone dissolves well, is inappropriate due to the immediate precipitation of the drug upon contact with physiological fluids or a water phase. An inclusion complex of Idebenone with cyclodextrin has been described, but it is water dispersible, not soluble and not suitable for injection. The solubility of Idebenone in fixed oils (soy, corn, almond, etc.) is low; drug precipitates from such emulsions during storage, limiting their use for the preparation of injectable forms of […].

The next series deals with cerebrovascular disease. The note with it: nine patients, 90 mg daily; cited from earlier work.
The subject of series [1] is cultured cortical neurons. The note with it: cited from earlier work.
The test system of the next series is Friedreich's Ataxia. The note with it: cited from earlier work.
Series [2] relates to microsomal lipid peroxidation. The note with it: cited from earlier work.
The test system of series [3] is learning and memory disturbances. The following applies: rats; cited from earlier work.
For series [4] the following is noted: oral; cited from earlier work.

On to `COC1=C(OC)C(=O)C(CCCCCCCCCCO)=C(C)C1=O` [Idebenone, 2,3-dimethoxy-5-methyl-6-(10-hydroxydecyl)-1,4-benzoquinone], for which, in the series “Solubility of Idebenone” (fixed oils (soy, corn, almond, etc.)), the “solubility in fixed oils” value is recorded as “low”. Besides, the water solubility result in “Solubility of Idebenone” (water) is recorded as “low”. Also, the “EEG and clinical symptoms” value in the series with cerebrovascular disease is “improvements in EEG and clinical symptoms”. The “rescue on delayed application” value in series [1] (applied 30 minutes after the NMDA pulse) was “rescues cortical neurons”. In addition, in series [1] (cultured cortical neurons), the “protection against necrotic degeneration” value is reported as “protects cultured cortical neurons against necrotic degeneration”. In addition, the “marker of oxidative DNA damage” value with Friedreich's Ataxia (oral 5 mg/kg daily for 8 weeks) was “significantly decreased”. Moreover, the left ventricular enlargement result with Friedreich's Ataxia (three patients, 5 mg/kg daily for 4-9 months) is recorded as “reduction of left ventricular enlargement”. The free radical scavenging result in series [2] (cell cultures) is “scavenges a variety of free radical species”. In addition, in series [2] (induced by ADP-iron complexes or organic hydroperoxides), the microsomal lipid peroxidation result is “inhibits microsomal lipid peroxidation”. Besides, in series [3], the “learning and memory disturbances” value is “ameliorates learning and memory disturbances”. For the same molecule, in series [4], the bioavailability result was “relatively high”.

The values above are taken from patent publication US20100130619A1, “PHARMACEUTICAL COMPOSITION FOR PARENTERAL ADMINISTRATION OF IDEBENONE” (priority 2008, published 2010).
